From US20250074891A1 (Anaxis Pharma Pty Ltd., priority 2021, published 2025)

Assays:
Conditions in all cases: Table 35
RIP3 = RIP3 (Homo sapiens (Human), UniProt Q9Y572); test: KINOMEscan binding assay, RIP3
Method: (§1) Kinase assays. For most assays, kinase-tagged T7 phage strains were grown in parallel in 24-well blocks in an E. coli host derived from the BL21 strain. E. coli were grown to log-phase and infected with T7 phage from a frozen stock (multiplicity of infection=0.4) and incubated with shaking at 32° C. until lysis (90-150 minutes).
(§2) The Hill Slope was set to −1.

MLKL (full length) = MLKL (full length) (Homo sapiens (Human), UniProt Q8NB16); test: KINOMEscan binding assay, MLKL (full length)
MLKL (full length), sequence (Q8NB16 whole entry): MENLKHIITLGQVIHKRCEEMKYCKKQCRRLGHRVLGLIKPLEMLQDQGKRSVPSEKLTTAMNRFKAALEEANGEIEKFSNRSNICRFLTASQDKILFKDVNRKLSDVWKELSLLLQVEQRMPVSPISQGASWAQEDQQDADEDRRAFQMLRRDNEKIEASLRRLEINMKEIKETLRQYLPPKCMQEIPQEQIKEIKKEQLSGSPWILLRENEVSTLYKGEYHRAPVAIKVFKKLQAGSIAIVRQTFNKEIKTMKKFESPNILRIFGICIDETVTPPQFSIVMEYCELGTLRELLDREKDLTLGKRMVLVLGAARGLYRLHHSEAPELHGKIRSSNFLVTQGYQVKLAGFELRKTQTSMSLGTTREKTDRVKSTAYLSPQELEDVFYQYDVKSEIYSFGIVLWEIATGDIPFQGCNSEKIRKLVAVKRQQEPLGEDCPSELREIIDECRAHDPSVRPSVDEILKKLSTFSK
Method: as §1, §2

RIP1 = RIP1 (Homo sapiens (Human), UniProt Q13546); test: KINOMEscan binding assay, RIP1
RIP1, sequence (Q13546 whole entry): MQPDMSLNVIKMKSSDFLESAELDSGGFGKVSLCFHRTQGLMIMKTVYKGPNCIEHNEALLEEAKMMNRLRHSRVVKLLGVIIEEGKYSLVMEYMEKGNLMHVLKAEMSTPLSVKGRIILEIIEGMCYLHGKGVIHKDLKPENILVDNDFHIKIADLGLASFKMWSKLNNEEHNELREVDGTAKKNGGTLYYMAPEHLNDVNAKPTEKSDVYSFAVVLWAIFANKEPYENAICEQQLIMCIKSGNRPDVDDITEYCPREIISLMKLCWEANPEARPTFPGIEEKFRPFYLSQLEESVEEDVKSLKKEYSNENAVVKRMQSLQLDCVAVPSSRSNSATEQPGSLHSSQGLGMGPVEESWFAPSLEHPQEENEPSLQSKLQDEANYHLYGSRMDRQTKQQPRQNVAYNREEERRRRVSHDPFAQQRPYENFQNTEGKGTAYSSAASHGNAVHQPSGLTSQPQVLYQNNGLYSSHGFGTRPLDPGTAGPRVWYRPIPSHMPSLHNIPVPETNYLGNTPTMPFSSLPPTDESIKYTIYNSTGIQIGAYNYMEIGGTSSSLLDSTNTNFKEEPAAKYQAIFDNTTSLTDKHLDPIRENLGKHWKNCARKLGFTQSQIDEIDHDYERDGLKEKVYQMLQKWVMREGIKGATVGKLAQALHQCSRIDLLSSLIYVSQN

RIP3, sequence (Q9Y572 whole entry): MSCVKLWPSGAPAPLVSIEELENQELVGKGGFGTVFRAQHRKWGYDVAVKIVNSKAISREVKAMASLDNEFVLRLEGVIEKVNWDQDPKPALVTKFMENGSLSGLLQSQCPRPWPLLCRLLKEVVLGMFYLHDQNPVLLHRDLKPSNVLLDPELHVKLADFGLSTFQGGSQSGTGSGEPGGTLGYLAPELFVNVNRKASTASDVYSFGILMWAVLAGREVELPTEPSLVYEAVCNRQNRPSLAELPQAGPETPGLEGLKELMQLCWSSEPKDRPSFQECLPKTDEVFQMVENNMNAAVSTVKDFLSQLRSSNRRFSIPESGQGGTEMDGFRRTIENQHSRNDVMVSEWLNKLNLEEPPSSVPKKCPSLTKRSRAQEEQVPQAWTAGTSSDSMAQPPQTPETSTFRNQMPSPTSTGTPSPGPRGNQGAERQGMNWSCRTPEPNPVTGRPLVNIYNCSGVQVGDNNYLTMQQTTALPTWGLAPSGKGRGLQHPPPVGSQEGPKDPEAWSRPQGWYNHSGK

## CCC(Oc1cc(-c2n[nH]c(Nc3cnccn3)c2C(N)=O)ccc1NS(=O)(=O)C(F)F)c1ccc(F)cc1 (racemic) [Compound 233, 3-[4-(difluoromethanesulfonamido)-3-[1-(4-fluorophenyl)propoxy]phenyl]-5-[(pyrazin-2-yl)amino]-1H-pyrazole-4-carboxamide]
RIP3
  Kd: > 30 µM
MLKL (full length)
  Kd: < 0.01 µM
RIP1
  Kd: > 30 µM

## CC(Oc1cc(-c2n[nH]c(Nc3cnccn3)c2C(N)=O)ccc1NS(=O)(=O)C(F)F)c1ncco1 (racemic) [Compound 293, 3-(4-((difluoro-methyl)sulfon-amido)-3-(1-(oxazol-2-yl)ethoxy)phenyl)-5-(pyrazin-2-ylamino)-1H-pyrazole-4-carboxamide]
RIP3
  Kd: > 30 µM
MLKL (full length)
  Kd: < 0.01 µM
RIP1
  Kd: > 30 µM

## COCC(Oc1cc(-c2n[nH]c(Nc3cc(C)on3)c2C(N)=O)ccc1NS(=O)(=O)C(F)F)c1ccc(F)cc1 (racemic) [Compound 298, 3-(4-((difluoromethyl)sulfonamido)-3-(1-(4-fluorophenyl)-2-methoxyethoxy)phenyl)-5-((5-methylisoxazol-3-yl)amino)-1H-pyrazole-4-carboxamide]
RIP3
  Kd: > 30 µM
MLKL (full length)
  Kd: < 0.01 µM
RIP1
  Kd: > 30 µM

## CCS(=O)(=O)Nc1ccc(-c2n[nH]c(Nc3cnccn3)c2C(N)=O)cc1OCc1ccc(F)c(F)c1 [Compound 1, 3-(3-((3,4-difluorobenzyl)oxy)-4-(ethylsulfonamido)phenyl)-5-(pyrazin-2-ylamino)-1H-pyrazole-4-carboxamide]
RIP3
  Kd: > 30 µM
MLKL (full length)
  Kd: < 0.01 µM
RIP1
  Kd: > 30 µM

## CC(C)(C)n1nc(-c2ccc(N)c(OCc3ccc(F)cc3)c2)c(C(N)=O)c1Nc1cccc(C(F)(F)F)n1 [Compound 5, 3-(4-amino-3-((4-fluorobenzyl)oxy)phenyl)-1-(tert-butyl)-5-((6-(trifluoromethyl)pyridin-2-yl)amino)-1H-pyrazole-4-carboxamide]
RIP3
  Kd: > 30 µM
MLKL (full length)
  Kd: 0.01 to 1 µM
RIP1
  Kd: > 30 µM

## CCS(=O)(=O)Nc1ccc(-c2n[nH]c(Nc3ccccn3)c2C(N)=O)cc1OCc1cccc(Cl)c1 [Compound 38, 3-(3-((3-chlorobenzyl)oxy)-4-(ethylsulfon-amido)phenyl)-5-(pyridin-2-ylamino)-1H-pyrazole-4-carboxamide]
RIP3
  Kd: > 30 µM
MLKL (full length)
  Kd: < 0.01 µM

## CCS(=O)(=O)Nc1ccc(-c2n[nH]c(Nc3ccccn3)c2C(N)=O)cc1OCc1ccc(Cl)cc1 [Compound 39, 3-(3-((4-chlorobenzyl)oxy)-4-(ethylsulfon-amido)phenyl)-5-(pyridin-2-ylamino)-1H-pyrazole-4-carboxamide]
RIP3
  Kd: > 30 µM
MLKL (full length)
  Kd: < 0.01 µM

## Cc1ccc(CS(=O)(=O)Nc2ccc(-c3n[nH]c(Nc4ccccn4)c3C(N)=O)cc2)cc1 [Compound 132, 5-(pyridin-2-ylamino)-3-(4-((p-tolylmethyl)sulfonamido)phenyl)-1H-pyrazole-4-carboxamide]
RIP3
  Kd: > 30 µM
RIP1
  Kd: > 30 µM

## CCS(=O)(=O)Nc1ccc(-c2n[nH]c(Nc3ccc4ccc(Cl)cc4n3)c2C(N)=O)cc1OCc1ccc(F)cc1 [Compound 138, 5-((7-chloroquinolin-2-yl)amino)-3-(4-(ethylsulfonamido)-3-((4-fluorobenzyl)oxy)phenyl)-1H-pyrazole-4-carboxamide]
RIP3
  Kd: > 30 µM
RIP1
  Kd: > 30 µM

## CCS(=O)(=O)Nc1ccc(-c2n[nH]c(Nc3cccc(C(F)(F)F)n3)c2C(N)=O)c(OCc2ccc(F)cc2)c1 [Compound 141, 3-(4-(ethylsulfonamido)-2-((4-fluorobenzyl)oxy)phenyl)-5-((6-(trifluoromethyl)pyridine-2-yl)amino)-1H-pyrazole-4-carboxamide]
RIP3
  Kd: > 30 µM
RIP1
  Kd: > 30 µM

## NC(=O)c1c(-c2ccc(NS(=O)(=O)CCC(F)(F)F)c(OCc3ccc(F)cc3)c2)n[nH]c1Nc1cccc(C(F)(F)F)n1 [Compound 182, 3-(3-((4-fluorobenzyl)oxy)-4-((3,3,3-trifluoropropyl)sulfonamido)phenyl)-5-((6-(trifluoromethyl)pyridine-2-yl)amino)-1H-pyrazole-4-carboxamide]
RIP3
  Kd: > 30 µM
RIP1
  Kd: > 30 µM

## CCS(=O)(=O)Nc1ccc(-c2n[nH]c(Nc3cnccn3)c2C(N)=O)cc1OCC1CCCN(C)C1 (stereo not shown) [Compound 187, 3-(4-(ethylsulfonamido)-3-((1-methylpiperidin-3-yl)methoxy)phenyl)-5-(pyrazin-2-ylamino)-1H-pyrazole-4-carboxamide]
RIP3
  Kd: > 30 µM
RIP1
  Kd: > 30 µM

## CCS(=O)(=O)Nc1ccc(-c2n[nH]c(Nc3cccnc3C(F)(F)F)c2C(N)=O)cc1OCc1ccc(F)cc1 [Compound 192, 3-(4-(ethylsulfonamido)-3-((4-fluorobenzyl)oxy)phenyl)-5-((2-(trifluoromethyl)pyridine-3-yl)amino)-1H-pyrazole-4-carboxamide]
RIP3
  Kd: > 30 µM
RIP1
  Kd: > 30 µM

## CCS(=O)(=O)Nc1ccc(-c2n[nH]c(Nc3cccc(C(F)(F)F)n3)c2C(N)=O)cc1OCC1CCCCC1 [Compound 200]
RIP3
  Kd: > 30 µM
RIP1
  Kd: > 30 µM

## CCS(=O)(=O)Nc1ccc(-c2n[nH]c(Nc3cnccn3)c2C(N)=O)cc1OCC1CCN(C)CC1 [Compound 203, 3-(4-(ethylsulfonamido)-3-((1-methylpiperidin-4-yl)methoxy)phenyl)-5-(pyrazin-2-ylamino)-1H-pyrazole-4-carboxamide]
RIP3
  Kd: > 30 µM
RIP1
  Kd: > 30 µM

## CCS(=O)(=O)Nc1ccc(-c2n[nH]c(Nc3ccc(C(F)(F)F)cn3)c2C(N)=O)cc1OCc1ccc(F)cc1 [Compound 207]
RIP3
  Kd: > 30 µM
RIP1
  Kd: > 30 µM

## CCS(=O)(=O)Nc1ccc(-c2n[nH]c(Nc3cnccn3)c2C(N)=O)c(OCc2cccc(F)c2)c1 [Compound 208, 3-(4-(ethylsulfonamido)-2-((3-fluorobenzyl)oxy)phenyl)-5-(pyrazin-2-ylamino)-1H-pyrazole-4-carboxamide]
RIP3
  Kd: > 30 µM
RIP1
  Kd: > 30 µM

## CCS(=O)(=O)Nc1ccc(-c2n[nH]c(Nc3cnccn3)c2C(N)=O)c(OC)c1 [Compound 209, 3-(4-(ethylsulfonamido)-2-methoxyphenyl)-5-(pyrazin-2-ylamino)-1H-pyrazole-4-carboxamide]
RIP3
  Kd: > 30 µM
RIP1
  Kd: > 30 µM

## CCS(=O)(=O)Nc1ccc(-c2n[nH]c(Nc3cnccn3)c2C(N)=O)cc1OCc1cccc(OC(F)(F)F)c1 [Compound 214, 3-(4-(ethylsulfonamido)-3-((3-(trifluoromethoxy)benzyl)oxy)phenyl)-5-(pyrazin-2-ylamino)-1H-pyrazole-4-carboxamide]
RIP3
  Kd: > 30 µM
RIP1
  Kd: > 30 µM

## CCS(=O)(=O)Nc1ccc(-c2n[nH]c(Nc3cnccn3)c2C(N)=O)cc1OCc1ccc(OC(F)(F)F)cc1 [Compound 215, 3-(4-(ethylsulfonamido)-3-((4-(trifluoromethoxy)benzyl)oxy)phenyl)-5-(pyrazin-2-ylamino)-1H-pyrazole-4-carboxamide]
RIP3
  Kd: > 30 µM
RIP1
  Kd: > 30 µM

## CCS(=O)(=O)Nc1ccc(-c2n[nH]c(Nc3cnccn3)c2C(N)=O)cc1OCc1ccc(C(F)(F)F)cc1 [Compound 216, 3-(4-(ethylsulfonamido)-3-((4-(trifluoromethyl)benzyl)oxy)phenyl)-5-(pyrazin-2-ylamino)-1H-pyrazole-4-carboxamide]
RIP3
  Kd: > 30 µM
RIP1
  Kd: > 30 µM

## CCS(=O)(=O)Nc1ccc(-c2n[nH]c(Nc3cnccn3)c2C(N)=O)cc1OCc1cccc(C(F)(F)F)c1 [Compound 218, 3-(4-(ethylsulfonamido)-3-((3-(trifluoromethyl)benzyl)oxy)phenyl)-5-(pyrazin-2-ylamino)-1H-pyrazole-4-carboxamide]
RIP3
  Kd: > 30 µM
RIP1
  Kd: > 30 µM

## CCS(=O)(=O)Nc1ccc(-c2n[nH]c(Nc3ccc4cc(Cl)ccc4n3)c2C(N)=O)cc1OCc1ccc(F)cc1 [Compound 220, 5-((6-chloroquinolin-2-yl)amino)-3-(4-(ethylsulfonamido)-3-((4-fluorobenzyl)oxy)phenyl)-1H-pyrazole-4-carboxamide]
RIP3
  Kd: > 30 µM
RIP1
  Kd: > 30 µM

## C[C@H](Oc1cc(NS(=O)(=O)C(F)F)ccc1-c1n[nH]c(Nc2cnccn2)c1C(N)=O)c1ccc(F)cc1 [Compound 243, 3-[4-(difluoromethanesulfonamido)-2-[(1 S)-1-(4-fluorophenyl)ethoxy]phenyl]-5-[(pyrazin-2-yl)amino]-1H-pyrazole-4-carboxamide]
RIP3
  Kd: > 30 µM
RIP1
  Kd: > 30 µM

## C[C@H](Oc1cc(NS(=O)(=O)CC(F)(F)F)ccc1-c1n[nH]c(Nc2cnccn2)c1C(N)=O)c1ccc(F)cc1 [Compound 244, 3-{2-[(1S)-1-(4-fluorophenyl)ethoxy]-4-(2,2,2-trifluoroethanesulfonamido)phenyl}-5-[(pyrazin-2-yl)amino]-1H-pyrazole-4-carboxamide]
RIP3
  Kd: > 30 µM
RIP1
  Kd: > 30 µM

## C[C@@H](Oc1cc(NS(=O)(=O)CC(F)(F)F)ccc1-c1n[nH]c(Nc2cnccn2)c1C(N)=O)c1ccc(F)cc1 [Compound 254, 3-{2-[(1R)-1-(4-fluorophenyl)ethoxy]-4-(2,2,2-trifluoroethanesulfonamido)phenyl}-5-[(pyrazin-2-yl)amino]-1H-pyrazole-4-carboxamide]
RIP3
  Kd: > 30 µM
RIP1
  Kd: > 30 µM

## C[C@@H](Oc1cc(NS(=O)(=O)C(F)F)ccc1-c1n[nH]c(Nc2cnccn2)c1C(N)=O)c1ccc(F)cc1 [Compound 255, 3-[4-(difluoromethanesulfonamido)-2-[(1R)-1-(4-fluorophenyl)ethoxy]phenyl]-5-[(pyrazin-2-yl)amino]-1H-pyrazole-4-carboxamide]
RIP3
  Kd: > 30 µM
RIP1
  Kd: > 30 µM

## C[C@H](Oc1cc(-c2n[nH]c(Nc3cc(C45CC6CC(CC(C6)C4)C5)on3)c2C(N)=O)ccc1NS(=O)(=O)C(F)F)c1ccc(F)cc1 [Compound 304]
RIP3
  Kd: > 30 µM
RIP1
  Kd: > 30 µM
